Measured values: PubChem BioAssay AID248 (DTP/NCI, 2004)
“And” between values parts separate entries of the source, which are not always exact repeats. Equal entries are not always repeated. Toxic doses and inconclusive results are not listed. Rule as the data show it: active = T/C of 150% or more; inactive = T/C below 125%.

Test system: L1210 leukemia ip in BDF1 mice, survival T/C
Assay: NCI In Vivo Anticancer Drug Screen. Data for tumor model L1210 Leukemia (intraperitoneal) in B6D2F1 (BDF1) mice
Conditions: endpoint: mean survival time, higher = longer survival
Procedure, shortened: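 Transplanted-tumor mice were given test agent; controls received vehicle only. Survival readings from the two groups were divided (treated over control).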

[1] = dose: 25.0 mg/kg/injection, schedule: Q04DX002 (ip), vehicle: saline
[2] = dose: 50.0 mg/kg/injection, schedule: Q04DX002 (ip), vehicle: saline
[3] = dose: 100.0 mg/kg/injection, schedule: Q01DX009 (ip), vehicle: Klucel (hydroxypropylcellulose) (HPC)
[4] = dose: 100.0 mg/kg/injection, schedule: Q04DX003 (ip), vehicle: Klucel (hydroxypropylcellulose) (HPC)
[5] = dose: 200.0 mg/kg/injection, schedule: Q01DX009 (ip), vehicle: Klucel (hydroxypropylcellulose) (HPC)
[6] = dose: 200.0 mg/kg/injection, schedule: Q04DX003 (ip), vehicle: Klucel (hydroxypropylcellulose) (HPC)
[7] = dose: 400.0 mg/kg/injection, schedule: Q04DX003 (ip), vehicle: Klucel (hydroxypropylcellulose) (HPC)
[8] = dose: 100.0 mg/kg/injection, schedule: Q04DX002 (ip), vehicle: saline
[9] = dose: 50.0 mg/kg/injection, schedule: Q01DX001 (ip), vehicle: saline
[10] = dose: 100.0 mg/kg/injection, schedule: Q01DX001 (ip), vehicle: saline
[11] = dose: 200.0 mg/kg/injection, schedule: Q01DX001 (ip), vehicle: saline
[12] = dose: 400.0 mg/kg/injection, schedule: Q01DX001 (ip), vehicle: saline
[13] = dose: 25.0 mg/kg/injection, schedule: Q01DX009 (ip), vehicle: Klucel (hydroxypropylcellulose) (HPC)
[14] = dose: 50.0 mg/kg/injection, schedule: Q01DX009 (ip), vehicle: Klucel (hydroxypropylcellulose) (HPC)

Measured: T/C

N=C(N)SCc1ccccc1Cl
inactive: dose: 3.13 mg/kg/injection, schedule: Q01DX009 (ip), vehicle: saline 96 % of control | dose: 3.13 mg/kg/injection, schedule: Q04DX002 (ip), vehicle: saline 102 % of control | dose: 6.25 mg/kg/injection, schedule: Q01DX009 (ip), vehicle: saline 98 % of control | dose: 6.25 mg/kg/injection, schedule: Q04DX002 (ip), vehicle: saline 102 % of control | dose: 12.5 mg/kg/injection, schedule: Q01DX009 (ip), vehicle: saline 96 % of control | dose: 12.5 mg/kg/injection, schedule: Q04DX002 (ip), vehicle: saline 91 % of control | dose: 25.0 mg/kg/injection, schedule: Q01DX009 (ip), vehicle: saline 96 % of control | [1] 97 % of control and 98 % of control | [2] 94 % of control

COC(=O)C1C=CCC2C(=O)C=C(C)C(=O)C12C (configuration not stated)
inactive: [3] 94 % of control | [4] 96 % of control | [5] 92 % of control | [6] 100 % of control | dose: 400.0 mg/kg/injection, schedule: Q01DX009 (ip), vehicle: Klucel (hydroxypropylcellulose) (HPC) 97 % of control | [7] 96 % of control

O=C(O)c1cc(Cl)ccc1-c1ccc(Cl)cc1C(=O)Nc1ccc2c(c1)Cc1ccccc1-2
inactive: dose: 75.0 mg/kg/injection, schedule: Q01DX001 (ip), vehicle: carboxymethylcellulose (CMC) 102 % of control | dose: 150.0 mg/kg/injection, schedule: Q01DX001 (ip), vehicle: carboxymethylcellulose (CMC) 113 % of control | dose: 300.0 mg/kg/injection, schedule: Q01DX001 (ip), vehicle: carboxymethylcellulose (CMC) 104 % of control

CC(N)CCC(O)C(=O)O (configuration not stated)
inactive: [8] 95 % of control | dose: 200.0 mg/kg/injection, schedule: Q04DX002 (ip), vehicle: saline 100 % of control | dose: 400.0 mg/kg/injection, schedule: Q04DX002 (ip), vehicle: saline 107 % of control

Cc1cn(C2OC(CO)C(O)C(O)C2N)c(=O)[nH]c1=O (configuration not stated)
inactive: [9] 107 % of control | [10] 97 % of control and 103 % of control | [11] 97 % of control and 108 % of control | [12] 103 % of control and 105 % of control

OCC1OC(n2c(Cl)nc3cc(Cl)c(Cl)cc32)C(O)C1O (configuration not stated)
inactive: dose: 100.0 mg/kg/injection, schedule: Q01DX005 (ip), vehicle: saline 96 % of control | dose: 200.0 mg/kg/injection, schedule: Q01DX005 (ip), vehicle: saline 96 % of control

CCOc1cccc2c1OC(COS(=O)(=O)c1ccc(C)cc1)CO2 (configuration not stated)
inactive: [10] 95 % of control | [11] 95 % of control | [12] 95 % of control

O=S(=O)(OCCCl)OCCCl
inactive: dose: 25.0 mg/kg/injection, schedule: Q01DX010 (ip), vehicle: olive oil, sesame oil, peanut oil 100 % of control | dose: 37.5 mg/kg/injection, schedule: Q01DX010 (ip), vehicle: olive oil, sesame oil, peanut oil 102 % of control | dose: 50.0 mg/kg/injection, schedule: Q01DX010 (ip), vehicle: olive oil, sesame oil, peanut oil 97 % of control

O=C(O)CCCCOc1ccc([N+](=O)[O-])cc1Cl
inactive: [3] 109 % of control | [5] 103 % of control

C=CC(=O)NC1CCCCC1
inactive: [13] 97 % of control | [14] 95 % of control | [3] 102 % of control | [4] 100 % of control | [6] 98 % of control | [7] 100 % of control

Cc1ccc(NC(=O)OC/C=C/c2ccccc2)c(Cl)c1
inactive: [3] 99 % of control | [5] 97 % of control

Cc1cc(=O)[nH]c2oc(-c3ccccc3)cc(=O)c12
inactive: [10] 101 % of control | [11] 103 % of control | [12] 100 % of control

Clc1cc(Cl)c2c(c1)COCO2
inactive: [13] 109 % of control | [14] 104 % of control | [3] 106 % of control | [4] 97 % of control | [6] 102 % of control | [7] 111 % of control

COc1cccc2c1C(=O)c1c(O)c3c(c(O)c1C2=O)C[C@@](O)(C(=O)COC(C)=O)C[C@@H]3OC1CC(N)C(O)C(C)O1 (some centres not stated)
inactive: dose: 0.45 mg/kg/injection, schedule: Q04DX003 (ip), vehicle: saline 120 % of control | dose: 1.6 mg/kg/injection, schedule: Q04DX003 (ip), vehicle: saline 111 % of control | dose: 2.4 mg/kg/injection, schedule: Q04DX003 (ip), vehicle: saline 104 % of control
active: dose: 0.7 mg/kg/injection, schedule: Q04DX003 (ip), vehicle: saline 167 % of control

CC1C(C)(C)P(N)(=O)C1(C)C (configuration not stated)
inactive: dose: 100.0 mg/kg/injection, schedule: Q04DX003 (ip), vehicle: saline 100 % of control | dose: 200.0 mg/kg/injection, schedule: Q04DX003 (ip), vehicle: saline 103 % of control | dose: 400.0 mg/kg/injection, schedule: Q04DX003 (ip), vehicle: saline 97 % of control

Brc1ccc(/C=N/Nc2nnc(N/N=C/c3ccc(Br)cc3)c3ccccc23)cc1
inactive: [9] 93 % of control | [10] 96 % of control | [11] 102 % of control | [12] 102 % of control

COc1ccccc1NC(=S)NCc1ccco1
inactive: dose: 100.0 mg/kg/injection, schedule: Q04DX002 (ip), vehicle: saline with Tween-80 89 % of control | dose: 200.0 mg/kg/injection, schedule: Q04DX002 (ip), vehicle: saline with Tween-80 89 % of control

O=C(NCc1ccc(Cl)cc1)Nc1cccc(F)c1
inactive: dose: 100.0 mg/kg/injection, schedule: Q01DX009 (ip), vehicle: gum acacia 105 % of control | dose: 200.0 mg/kg/injection, schedule: Q01DX009 (ip), vehicle: gum acacia 86 % of control | dose: 400.0 mg/kg/injection, schedule: Q01DX009 (ip), vehicle: gum acacia 98 % of control

O[Si](O)([O][Sn]([c]1ccccc1)([c]1ccccc1)[c]1ccccc1)[O][Sn]([c]1ccccc1)([c]1ccccc1)[c]1ccccc1
inactive: dose: 25.0 mg/kg/injection, schedule: Q01DX009 (ip), vehicle: saline with Tween-80 106 % of control | dose: 50.0 mg/kg/injection, schedule: Q01DX009 (ip), vehicle: saline 96 % of control

CCCCOCc1cc(CN2CCN(C)CC2)c(O)c2ncccc12
inactive: [1] 89 % of control | [2] 95 % of control | [8] 89 % of control

CC(CN1CC(=O)NC(=O)C1)N1CC(=O)NC(=O)C1.[Cl][Pt][Cl] (configuration not stated)
inactive: dose: 12.5 mg/kg/injection, schedule: Q04DX003 (ip), vehicle: water 106 % of control | dose: 25.0 mg/kg/injection, schedule: Q04DX003 (ip), vehicle: water 97 % of control | dose: 50.0 mg/kg/injection, schedule: Q04DX003 (ip), vehicle: water 109 % of control | dose: 100.0 mg/kg/injection, schedule: Q01DX009 (ip), vehicle: water 108 % of control | dose: 100.0 mg/kg/injection, schedule: Q04DX003 (ip), vehicle: water 106 % of control and 107 % of control | dose: 200.0 mg/kg/injection, schedule: Q01DX009 (ip), vehicle: water 121 % of control | dose: 200.0 mg/kg/injection, schedule: Q04DX003 (ip), vehicle: water 101 % of control | dose: 400.0 mg/kg/injection, schedule: Q04DX003 (ip), vehicle: water 118 % of control
active: dose: 400.0 mg/kg/injection, schedule: Q01DX009 (ip), vehicle: water 160 % of control

CN(C)/N=[N+](\[O-])c1ccccc1
inactive: dose: 6.25 mg/kg/injection, schedule: Q01DX009 (ip), vehicle: Klucel (hydroxypropylcellulose) (HPC) 103 % of control | dose: 12.5 mg/kg/injection, schedule: Q01DX009 (ip), vehicle: Klucel (hydroxypropylcellulose) (HPC) 100 % of control and 105 % of control | [13] 97 % of control and 104 % of control | dose: 25.0 mg/kg/injection, schedule: Q04DX003 (ip), vehicle: Klucel (hydroxypropylcellulose) (HPC) 96 % of control | [14] 100 % of control and 105 % of control | dose: 50.0 mg/kg/injection, schedule: Q04DX003 (ip), vehicle: Klucel (hydroxypropylcellulose) (HPC) 95 % of control and 108 % of control | [4] 95 % of control and 105 % of control

O=S1(=O)C=C(Br)C1
inactive: dose: 100.0 mg/kg/injection, schedule: Q04DX002 (ip), vehicle: Klucel (hydroxypropylcellulose) (HPC) 94 % of control and 106 % of control | dose: 200.0 mg/kg/injection, schedule: Q04DX002 (ip), vehicle: Klucel (hydroxypropylcellulose) (HPC) 106 % of control

O=P(Oc1ccccc1)(Oc1ccccc1)Oc1ccccc1Cl
inactive: [10] 96 % of control | [11] 102 % of control | [12] 97 % of control

Oc1ccc(N=Cc2ccccc2O)cc1.[Co]
inactive: dose: 100.0 mg/kg/injection, schedule: Q01DX001 (ip), vehicle: other 98 % of control | dose: 200.0 mg/kg/injection, schedule: Q01DX001 (ip), vehicle: other 94 % of control | dose: 400.0 mg/kg/injection, schedule: Q01DX001 (ip), vehicle: other 102 % of control
